47 compounds from patent publication US20220073536A1 (Rigel Pharmaceuticals, Inc., priority 2003, published 2022) can be followed below.

The structures appear in SMILES notation.

One assay relates to cultured human mast cells (CHMC). The assay can be described thus: CHMC low cell density IgE activation: tryptase assay. It is filed as cell-based. The note with it: Homo sapiens, Mast cell, low cell density CHMC, IgE activation, tryptase release, 3 pt; read-out: LD Tryptase, CHMC, IgE, 3 pt. The method, then:
Inhibition of degranulation was measured at both low and high cell density by quantifying the release of the granule specific factors tryptase, histamine and hexosaminidase. Inhibition of release and/or synthesis of lipid mediators was assessed by measuring the release of leukotriene LTC4 and inhibition of release and/or synthesis of cytokines was monitored by quantifying TNF-α, IL-6 and IL-13. Tryptase and hexosaminidase were quantified using fluorogenic substrates as described in their respective examples. […] The protocols of the various assays are provided below.
Pellet CHMC cells (980 rpm, 10 min) and resuspend in pre-warmed MT. Add 65 ul of cells to each 96-well plate. Depending on the degranulation activity for each particular CHMC donor, load 1000-1500 cells/well. Mix four times followed by a 1 hr incubation at 37° C. […] Stimulate cells by adding 25 ul of 6× anti-IgE solution to the appropriate plates. Add 25 ul MT to un-stimulated control wells. Mix twice following addition of the anti-IgE. Incubate at 37° C. for 30 minutes. […] Spin plates at 1000 rpm for 10 min to pellet cells. Transfer 25 ul of supernatant to a 96-well black bottom plate and add 100 ul of freshly diluted tryptase substrate solution to each well. Incubate plates at room temperature for 30 min.
As to `O=C1CSc2ccc(Nc3nc(Nc4cccc(O)c4)ncc3F)cc2N1` [Compound 281], the IC50 is < 10 µM.
For `CC1(C)Sc2ccc(Nc3nc(Nc4ccc5cn[nH]c5c4)ncc3F)cc2NC1=O` [Compound 295], the IC50 is < 10 µM.
Turning to `COc1ccc(Nc2ncc(F)c(Nc3ccc4c(c3)NC(=O)C(C)(C)S4(=O)=O)n2)cc1F` [Compound 297], the IC50 was < 10 µM.
For `COc1ccc(Nc2ncc(F)c(Nc3ccc4c(c3)NC(=O)CS4)n2)cc1F` [Compound 300, 5-Fluoro-N2-(3-fluoro-4-methoxyphenyl)-N4-(3-oxo-2H,4H-benzo[1,4]thiazin-6-yl)-2,4-pyrimidinediamine], the IC50 is < 10 µM.
`Cc1cc(C)cc(Nc2ncc(F)c(Nc3ccc4c(c3)NC(=O)CS4)n2)c1` [Compound 301]: the IC50 was < 10 µM.
Take `Cn1ncc2ccc(Nc3ncc(F)c(Nc4ccc5c(c4)NC(=O)C(C)(C)S5)n3)cc21` [Compound 311]: the IC50 was < 10 µM.
For the compound `COc1cc(Nc2ncc(F)c(Nc3cccc(OC(F)(F)F)c3)n2)cc(OC)c1` [Compound 324], the IC50 is < 10 µM.
Turning to `Cc1cc(C)cc(Nc2ncc(F)c(Nc3cccc(OC(F)(F)F)c3)n2)c1` [Compound 325, N2-(3,5-Dimethylphenyl)-5-fluoro-N4-(3-trifluoromethoxyphenyl)-2,4-pyrimidinediamine], the IC50 is < 10 µM.
Consider `Fc1cnc(Nc2ccc3cc[nH]c3c2)nc1Nc1cccc(OC(F)(F)F)c1` [Compound 326, 5-Fluoro-N2-(indol-6-yl)-N4-(3-trifluoromethoxyphenyl)-2,4-pyrimidinediamine], for which the IC50 is < 10 µM.
As for `COc1cc(Nc2ncc(F)c(Nc3cc(C)cc(C)c3)n2)cc(C(F)(F)F)c1` [Compound 329], the IC50 was < 10 µM.
In the case of `Cc1cc(C)cc(N(c2cc(C)cc(C(F)(F)F)c2)c2nc(N)ncc2F)c1` [Compound 330], the IC50 was < 10 µM.
Turning to `COc1cc(Nc2nc(Nc3cc(C)cc(C)c3)ncc2F)cc(C(F)(F)F)c1` [Compound 331], the IC50 is < 10 µM.
Still for that read-out and setting: to `COc1cc(Nc2ncc(F)c(Nc3cc(OC)cc(C(F)(F)F)c3)n2)cc(OC)c1` [Compound 332, N2-(3,5-Dimethoxyphenyl)-5-fluoro-N4-(3-methoxy-5-trifluoromethylphenyl)-2,4-pyrimidinediamine] belongs < 10 µM; to `COc1cc(Nc2ncc(F)c(Nc3cc(OC)cc(C(F)(F)F)c3)n2)cc(C(F)(F)F)c1` [Compound 333], < 10 µM.
On to `COc1cc(Nc2nc(Nc3cc(C)cc(C(F)(F)F)c3)ncc2F)cc(C(F)(F)F)c1` [Compound 334], for which the IC50 was < 10 µM.

Staying with this assay, now noted: Homo sapiens, Mast cell, low cell density CHMC, IgE activation, tryptase release, 8 pt; read-out: LD Tryptase, CHMC, IgE, 8 pt.
Take `CC1Sc2ccc(Nc3nc(Nc4ccc5cn[nH]c5c4)ncc3F)cc2NC1=O` (centres unmarked) [Compound 277]: the IC50 was < 10 µM.
As for `CC1Sc2ccc(Nc3nc(Nc4ccc5[nH]ncc5c4)ncc3F)cc2NC1=O` (centres unmarked) [Compound 278], the IC50 was < 10 µM.
The same measure, in the same setting: as for `COc1ccc(Nc2ncc(F)c(Nc3ccc4c(c3)NC(=O)C(C)S4)n2)cc1Cl` (centres unmarked) [Compound 280], the figure is < 10 µM; as for `O=C1CSc2ccc(Nc3nc(Nc4cccc(O)c4)ncc3F)cc2N1` [Compound 281], < 10 µM; as for `COc1cc(Nc2ncc(F)c(Nc3ccc4c(c3)NC(=O)CS4)n2)cc(OC)c1OC` [Compound 287], < 10 µM.
On to `O=C1CSc2ccc(Nc3nc(Nc4ccc5[nH]ncc5c4)ncc3F)cc2N1` [Compound 288], for which the IC50 is < 10 µM.
As for `COc1cc(Nc2ncc(F)c(Nc3ccc4c(c3)NC(=O)C(C)(C)S4)n2)cc(OC)c1` [Compound 290], the IC50 was < 10 µM.
Consider `Cc1cc(C)cc(Nc2ncc(F)c(Nc3ccc4c(c3)NC(=O)C(C)(C)S4)n2)c1` [Compound 291], for which the IC50 was < 10 µM.
With `COc1cc(Nc2ncc(F)c(Nc3ccc4c(c3)NC(=O)C(C)(C)S4)n2)cc(OC)c1OC` [Compound 292], the IC50 was < 10 µM.
Turning to `CC1(C)Sc2ccc(Nc3nc(Nc4cccc(O)c4)ncc3F)cc2NC1=O` [Compound 293], the IC50 is < 10 µM.
With `CC1(C)Sc2ccc(Nc3nc(Nc4ccc5cn[nH]c5c4)ncc3F)cc2NC1=O` [Compound 295], the IC50 was < 10 µM.
Still for that read-out and setting: to `COc1ccc(Nc2ncc(F)c(Nc3ccc4c(c3)NC(=O)C(C)(C)S4(=O)=O)n2)cc1F` [Compound 297] belongs < 10 µM; to `COc1ccc(Nc2ncc(F)c(Nc3ccc4c(c3)NC(=O)CS4)n2)cc1F` [Compound 300, 5-Fluoro-N2-(3-fluoro-4-methoxyphenyl)-N4-(3-oxo-2H,4H-benzo[1,4]thiazin-6-yl)-2,4-pyrimidinediamine], < 10 µM.
With `Cc1cc(C)cc(Nc2ncc(F)c(Nc3ccc4c(c3)NC(=O)CS4)n2)c1` [Compound 301], the IC50 was < 10 µM.
As to `Cc1cc(C)cc(Nc2ncc(F)c(Nc3ccc4c(c3)NC(=O)CS4(=O)=O)n2)c1` [Compound 302], the IC50 is < 10 µM.
As to `COc1cc(Nc2ncc(F)c(Nc3ccc4c(c3)NC(=O)CS4(=O)=O)n2)cc(OC)c1` [Compound 303], the IC50 is < 10 µM.
As for `COc1ccc(Nc2ncc(F)c(Nc3ccc4c(c3)NC(=O)CS4(=O)=O)n2)cc1Cl` [Compound 304], the IC50 was < 10 µM.
As to `O=C1CS(=O)(=O)c2ccc(Nc3nc(Nc4ccc5cn[nH]c5c4)ncc3F)cc2N1` [Compound 307], the IC50 was < 10 µM.
On the same count and under the same terms, as for `O=C1CS(=O)(=O)c2ccc(Nc3nc(Nc4cccc(O)c4)ncc3F)cc2N1` [Compound 308], the figure is < 10 µM.
`COc1ccc(Nc2ncc(F)c(Nc3ccc4c(c3)NC(=O)CS4(=O)=O)n2)cc1F` [Compound 309]: the IC50 is < 10 µM.
With `O=C1CS(=O)(=O)c2ccc(Nc3nc(Nc4ccc5[nH]ncc5c4)ncc3F)cc2N1` [Compound 310], the IC50 is < 10 µM.
In the case of `Cn1ncc2ccc(Nc3ncc(F)c(Nc4ccc5c(c4)NC(=O)C(C)(C)S5)n3)cc21` [Compound 311], the IC50 was < 10 µM.
Consider `Fc1cnc(Nc2ccc3cc[nH]c3c2)nc1Nc1cccc(OC(F)(F)F)c1` [Compound 326, 5-Fluoro-N2-(indol-6-yl)-N4-(3-trifluoromethoxyphenyl)-2,4-pyrimidinediamine], for which the IC50 is < 10 µM.
In the case of `COc1cc(Nc2ncc(F)c(Nc3cc(C)cc(C)c3)n2)cc(OC)c1` [Compound 328], the IC50 is < 10 µM.
With `COc1cc(Nc2nc(Nc3cc(OC)c(OC)c(OC)c3)ncc2F)cc(C(F)(F)F)c1` [Compound 335], the IC50 is < 10 µM.

The same assay, now with this note: low cell density CHMC, IgE activation, tryptase release, 3 pt; read-out: LD Tryptase, CHMC, IgE, 3 pt.
Consider `CNC(=O)COc1cccc(Nc2ncc(F)c(Nc3ccc4c(c3)NC(=O)C(C)(C)S4)n2)c1` [Compound 294, N4-(2,2-Dimethyl-3-oxo-4H-benzo[1,4]thiazin-6-yl)-5-fluoro-N2-[3-(N-methylamino)carbonylmethyleneoxyphenyl]-2,4-pyrimidinediamine], for which the IC50 is < 10 µM.
On to `COc1ccc(Nc2ncc(F)c(Nc3ccc4c(c3)NC(=O)C(C)(C)S4)n2)cc1F` [Compound 299], for which the IC50 was < 10 µM.
In the case of `O=C1CSc2ccc(Nc3nc(Cl)ncc3F)cc2N1` [Compound 313, N2-Chloro-5-fluoro-N4-(3-oxo-2H,4H-benzo[1,4]thiazin-6-yl)-4-pyrimidineamine], the IC50 is < 10 µM.
For the compound `O=C1CS(=O)(=O)c2ccc(Nc3nc(Cl)ncc3F)cc2N1` [Compound 315, N2-Chloro-5-fluoro-N4-(1,1,3-trioxo-2H,4H-benzo[1,4]thiazin-6-yl)-4-pyrimidineamine], the IC50 was > 10 µM.
As to `CC1(C)Sc2ccc(Nc3nc(Cl)ncc3F)cc2NC1=O` [Compound 316, N2-Chloro-N4-(2,2,-dimethyl-3-oxo-4H-benzo[1,4]thiazin-6-yl)-5-fluoro-4-pyrimidineamine], the IC50 is < 10 µM.
Consider `CC1(C)C(=O)Nc2cc(Nc3nc(Cl)ncc3F)ccc2S1(=O)=O` [Compound 318, N2-Chloro-N4-(2,2-dimethyl-1,1,3-trioxo-4H-benzo[1,4]thiazin-6-yl)-5-fluoro-4-pyrimidineamine], for which the IC50 was < 10 µM.
`CC1(C)COc2ccc(Nc3nc(Cl)ncc3F)cc2N1` [Compound 320, N2-Chloro-N4-(3,3-dimethyl-1,4-benzoxazin-6-yl)-5-fluoro-pyrimidineamine]: the IC50 is < 10 µM.
Turning to `CNC(=O)COc1cccc(Nc2ncc(F)c(Nc3ccc4ccn(C(=O)NC)c4c3)n2)c1` [Compound 327, 5-Fluoro-N4-[1-(N-methylamino)carbonylindol-6-yl]-N2-[3-(N-methylamino)carbonylmethyleneoxyphenyl]-2,4-pyrimidinediamine], the IC50 was < 10 µM.

The same assay, now with this note: low cell density CHMC, IgE activation, tryptase release, 8 pt; read-out: LD Tryptase, CHMC, IgE, 8 pt.
Regarding `COc1ccc(Nc2ncc(F)c(Nc3ccc4c(c3)NC(=O)C(C)(C)S4(=O)=O)n2)cc1Cl` [Compound 276], the IC50 was < 10 µM.
Consider `CNC(=O)COc1cccc(Nc2ncc(F)c(Nc3ccc4c(c3)NC(=O)C(C)S4)n2)c1` (centres unmarked) [Compound 279, 5-Fluoro-N2-[3-(N-methylamino)carbonylmethyleneoxyphenyl]-N4-(2-methyl-3-oxo-2H,4H-benzo[1,4]thiazin-6-yl)-2,4-pyrimidinediamine], for which the IC50 is < 10 µM.
Take `CC1(C)C(=O)Nc2cc(Nc3nc(Nc4cccc(O)c4)ncc3F)ccc2S1(=O)=O` [Compound 283, racemic-N4-(2,2-Dimethyl-1,1,3-trioxo-4H-benzo[1,4]thiazin-6-yl)-5-fluoro-N2-[3-hydoxyphenyl]-2,4-pyrimidinediamine]: the IC50 was < 10 µM.
Same read-out and setting: to `COc1ccc(Nc2ncc(F)c(Nc3ccc4c(c3)NC(=O)C(C)(C)S4)n2)cc1Cl` [Compound 289] belongs < 10 µM; to `CNC(=O)COc1cccc(Nc2ncc(F)c(Nc3ccc4c(c3)NC(=O)C(C)(C)S4)n2)c1` [Compound 294, N4-(2,2-Dimethyl-3-oxo-4H-benzo[1,4]thiazin-6-yl)-5-fluoro-N2-[3-(N-methylamino)carbonylmethyleneoxyphenyl]-2,4-pyrimidinediamine], < 10 µM.
On to `COc1ccc(Nc2ncc(F)c(Nc3ccc4c(c3)NC(=O)C(C)(C)S4)n2)cc1F` [Compound 299], for which the IC50 is < 10 µM.
For the compound `CNC(=O)COc1cccc(Nc2ncc(F)c(Nc3ccc4c(c3)NC(=O)CS4(=O)=O)n2)c1` [Compound 305, 5-Fluoro-N2-[3-(N-methylamino)carbonylmethyleneoxyphenyl]-N4-(1,1,3-trioxo-2H,4H-benzo[1,4]thiazin-6-yl)-2,4-pyrimidinediamine], the IC50 was < 10 µM.
With `COc1cc(Nc2ncc(F)c(Nc3ccc4c(c3)NC(=O)CS4(=O)=O)n2)cc(OC)c1OC` [Compound 306, 5-Fluoro-N2-(3,4,5-triimethoxylphenyl)-N4-(1,1,3-trioxo-2H,4H-benzo[1,4]thiazin-6-yl)-2,4-pyrimidinediamine], the IC50 is < 10 µM.
